Assay results from PubChem BioAssay (NCI).
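Results reflect a 48-hour exposure of cells in 96-well plates to compound at five concentrations. TGI is the concentration that stops growth completely.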

Legend:
Experiment in all cases: growth of human tumour cells (NCI), 48 h
NCI-H23 lung = test system: NCI-H23 lung
HCT-116 colon = test system: HCT-116 colon
K-562 leukemia = test system: K-562 leukemia
A549 NSCLC = test system: A549 NSCLC
M14 melanoma = test system: M14 melanoma
CCRF-CEM leukemia = test system: CCRF-CEM leukemia
RXF 393 renal = test system: RXF 393 renal
HT29 colon = test system: HT29 colon
SNB-19 CNS = test system: SNB-19 CNS
OVCAR-5 ovarian = test system: OVCAR-5 ovarian
COLO 205 colon = test system: COLO 205 colon
SR leukemia = test system: SR leukemia
SNB-75 CNS = test system: SNB-75 CNS

Row | Structure (SMILES) | TGI (NCI-H23 lung) | TGI (HCT-116 colon) | TGI (K-562 leukemia) | TGI (A549 NSCLC) | TGI (M14 melanoma) | TGI (CCRF-CEM leukemia) | TGI (RXF 393 renal) | TGI (HT29 colon) | TGI (SNB-19 CNS) | TGI (OVCAR-5 ovarian) | TGI (COLO 205 colon) | TGI (SR leukemia) | TGI (SNB-75 CNS)
1 | COc1cc(/C=C2/C(=O)N(C(=O)c3ccc(Cl)cc3)N=C2C)cc(OC)c1OC | > 100 µM | > 100 µM | > 100 µM | > 100 µM | > 100 µM | > 100 µM | > 100 µM | > 100 µM | > 100 µM | > 100 µM | > 100 µM |  | 
2 | [N-]=[N+]=NC(CBr)c1cn([C@H]2C[C@H](O)[C@@H](CO)O2)c(=O)[nH]c1=O (stereo not given in full) | > 100 µM | > 100 µM | > 100 µM | > 100 µM | > 100 µM | > 100 µM | > 100 µM | > 100 µM | > 100 µM | > 100 µM | > 100 µM | > 100 µM | > 100 µM
3 | Cn1c2cc(O)cc(O)c2c(=O)c2c([N+](=O)[O-])cccc21 | > 100 µM | > 100 µM | > 100 µM | > 100 µM | > 100 µM | > 100 µM | > 100 µM | > 100 µM | > 100 µM | > 100 µM | > 100 µM | > 100 µM | > 100 µM
4 | COC(=O)c1ccc(Cc2ccc(C(=O)OC)o2)o1 | > 378 µM | > 378 µM | > 378 µM | > 378 µM |  | > 378 µM | > 378 µM | > 378 µM | > 378 µM | > 378 µM | > 378 µM | > 378 µM | 
5 | COC(=O)[C@@]12OC[C@]34C([C@@H](O)C1O)[C@@]1(C)CC(=O)C(OC(=O)/C=C(/c5ccccc5)C(F)(F)F)=C(C)C1C[C@H]3OC(=O)[C@H](O)[C@H]42 (stereo not given in full) | 19.7 µM | > 50 µM | > 50 µM | > 50 µM | 36.9 µM | > 50 µM | 45.6 µM | 46.3 µM | 23.2 µM | > 50 µM | 30.2 µM | 19.4 µM | 31.3 µM
6 | C=CCN(C)CN(C)c1nc(N(C)C)nc(N(C)C)n1 | > 100 µM | > 100 µM | > 100 µM | > 100 µM | > 100 µM | > 100 µM |  | > 100 µM | > 100 µM | > 100 µM | > 100 µM | > 100 µM | > 100 µM
7 | Cn1ncnc1CCc1ccccc1 | > 100 µM | > 100 µM | > 100 µM | > 100 µM | > 100 µM | > 100 µM | > 100 µM | > 100 µM |  | > 100 µM | > 100 µM | > 100 µM | > 100 µM
8 | CC(C)C(/C=C/c1ccc(Br)cc1)=N\NC(N)=O | > 100 µM | > 100 µM | > 100 µM | > 100 µM | > 100 µM | > 100 µM | > 100 µM | > 100 µM | > 100 µM | > 100 µM | > 100 µM | > 100 µM | > 100 µM
9 | CCOC(=O)c1ccc(-n2c(SCC)nc3sc(C)c(C)c3c2=O)cc1 | > 100 µM | > 100 µM | > 100 µM | > 100 µM | > 100 µM | > 100 µM | > 100 µM | > 100 µM | > 100 µM | > 100 µM | > 100 µM | > 100 µM | > 100 µM
10 | Cc1ccc(O)c(C(=O)CCCC(=O)c2cc(C)ccc2O)c1 | > 100 µM |  | > 100 µM |  | > 100 µM | > 100 µM |  | > 100 µM | > 100 µM | > 100 µM | > 100 µM |  | > 100 µM
11 | CSc1nc2[nH]c(=O)c(C)nc2c(=O)[nH]1 | > 100 µM | > 100 µM | > 100 µM | > 100 µM | > 100 µM | > 100 µM | > 100 µM | > 100 µM | > 100 µM | > 100 µM | > 100 µM | > 100 µM | > 100 µM
12 | COc1cc([C@@H]2c3cc4c(cc3[C@@H](NC(=O)c3cccc(F)c3)C3COC(=O)[C@@H]32)OCO4)cc(OC)c1O (stereo not given in full) | 3.18 µM | 13.8 µM | > 100 µM | 2.62 µM | 6.72 µM | > 100 µM | 37.5 µM | 15.4 µM | 14.2 µM | 33 µM | 22.1 µM |  | 5.24 µM
13 | CC(=O)NNc1nc(C)c(C(/C=C/c2ccc(Cl)cc2)=N/NC(=O)C[N+](C)(C)C)s1 | > 100 µM | > 100 µM | > 100 µM | > 100 µM | > 100 µM | > 100 µM | > 100 µM | > 100 µM | > 100 µM | > 100 µM | > 100 µM |  | > 100 µM
14 | COc1ccc(CNc2nc3c(NC(C)=O)cc(C(F)(F)F)cc3nc2-c2ccccc2)cc1OC | > 100 µM | > 100 µM | > 100 µM | > 100 µM | > 100 µM | > 100 µM |  | > 100 µM | > 100 µM | > 100 µM | > 100 µM |  | 4.48 µM
15 | COc1cc2c(cc1OC)C(=O)C(C1=C(SC(=N)N)C(=O)c3cc(OC)c(OC)cc31)C2 (stereo not given) | > 100 µM | > 100 µM | > 100 µM | > 100 µM | > 100 µM | > 100 µM |  | > 100 µM | > 100 µM | > 100 µM | > 100 µM | > 100 µM | > 100 µM
